Source: patent US20220313698A1, “MODULATORS OF CYSTIC FIBROSIS TRANSMEMBRANE CONDUCTANCE REGULATOR” (Vertex Pharmaceuticals Incorporated, priority 2019, published 2022)

Target: CFTR-mediated chloride transport (Homo sapiens, UniProt P13569)
Assay: Corrector Assay A - membrane potential dye assay (enteroid cells)
Settings: for Corrector Assay A % activity: % of chloride transport of triple combination control (1 μM (14S)-dispiro macrocycle + 3 μM tezacaftor + 300 nM ivacaftor); for EC50: read-out: Corrector Assay A EC50, human intestinal enteroid cells, 18-24 h incubation, acute 10 μM forskolin + 300 nM ivacaftor

| SMILES | Corrector Assay A % activity | EC50 [µM] |
| --- | --- | --- |
| CC(C)(C)CCOc1cccc(-c2ccc3c(n2)N2C[C@@H](CC[C@H](c4cc(C(C)(C)C)ccn4)Nc4cccc(n4)S(=O)(=O)NC3=O)CC2(C)C)n1 [Compound 303, (14S,17R)-17-(4-tert-butylpyridin-2-yl)-8-[6-(3,3-dimethylbutoxy)pyridin-2-yl]-12,12-dimethyl-2λ^6-thia-3,9,11,18,23-pentaazatetracyclo[17.3.1.111,14.05,10]tetracosa-1(22),5,7,9,19(23),20-hexaene-2,2,4-trione] | +++ (+++ is >60%) | < 1 |
| CC(C)(C)CCOc1cccc(-c2ccc3c(n2)N2C[C@@H](CC[C@H](c4cccc(C(F)(F)F)n4)Nc4cccc(n4)S(=O)(=O)NC3=O)CC2(C)C)n1 [Compound 304, (14S,17R)-8-[6-(3,3-dimethylbutoxy)pyridin-2-yl]-12,12-dimethyl-17-[6-(trifluoromethyl)pyridin-2-yl]-2λ^6-thia-3,9,11,18,23-pentaazatetracyclo[17.3.1.111,14.05,10]tetracosa-1(22),5,7,9,19(23),20-hexaene-2,2,4-trione] | ++ (++ is 30-60%) | < 1 |
| CC(C)(C)CCOc1ccn(-c2ccc3c(n2)N2C[C@@H](CC[C@H](c4cc(C(C)(C)C)ccn4)Nc4cccc(n4)S(=O)(=O)NC3=O)CC2(C)C)n1 [Compound 305, (14S,17R)-17-(4-tert-butylpyridin-2-yl)-8-[3-(3,3-dimethylbutoxy)-1H-pyrazol-1-yl]-12,12-dimethyl-2λ^6-thia-3,9,11,18,23-pentaazatetracyclo[17.3.1.111,14.05,10]tetracosa-1(22),5,7,9,19(23),20-hexaene-2,2,4-trione] | +++ (+++ is >60%) | < 1 |
| CC(C)(C)CCOc1ccn(-c2ccc3c(n2)N2C[C@@H](CC[C@H](c4cccc(C(F)(F)F)n4)Nc4cccc(n4)S(=O)(=O)NC3=O)CC2(C)C)n1 [Compound 306, (14S,17R)-8-[3-(3,3-dimethylbutoxy)-1H-pyrazol-1-yl]-12,12-dimethyl-17-[6-(trifluoromethyl)pyridin-2-yl]-2λ^6-thia-3,9,11,18,23-pentaazatetracyclo[17.3.1.111,14.05,10]tetracosa-1(22),5,7,9,19(23),20-hexaene-2,2,4-trione] | ++ (++ is 30-60%) | < 1 |
| CC1(C)C[C@@H]2CC[C@H](c3cccc(C(F)(F)F)n3)Nc3cccc(n3)S(=O)(=O)NC(=O)c3ccc(-c4cccc(F)n4)nc3N1C2 [Compound 308, (14S,17R)-8-(6-fluoropyridin-2-yl)-12,12-dimethyl-17-[6-(trifluoromethyl)pyridin-2-yl]-2λ^6-thia-3,9,11,18,23-pentaazatetracyclo[17.3.1.111,14.05,10]tetracosa-1(22),5,7,9,19(23),20-hexaene-2,2,4-trione] | ++ (++ is 30-60%) | < 1 |
| CC(C)(C)CCOc1cccc(-c2ccc3c(n2)N2C[C@@H](CC[C@H](c4ccccn4)Nc4cccc(n4)S(=O)(=O)NC3=O)CC2(C)C)n1 [Compound 310] | ++ (++ is 30-60%) | < 1 |
| CC1(C)C[C@@H]2CC[C@H](c3ccccn3)Nc3cccc(n3)S(=O)(=O)NC(=O)c3ccc(-c4cccc(OCCC5CC5)n4)nc3N1C2 [Compound 311] | +++ (+++ is >60%) | < 1 |
| CC(C)(C)COc1cccc(-c2ccc3c(n2)N2C[C@@H](CC[C@H](c4ccccn4)Nc4cccc(n4)S(=O)(=O)NC3=O)CC2(C)C)n1 [Compound 312] | +++ (+++ is >60%) | < 1 |

The remaining lines, values ahead:

| Corrector Assay A % activity | EC50 [µM] | SMILES |
| --- | --- | --- |
| ++ (++ is 30-60%) | < 1 | CC1(C)C[C@@H]2CC[C@H](c3ccccn3)Nc3cccc(n3)S(=O)(=O)NC(=O)c3ccc(Br)nc3N1C2 [Compound 246, (14S,17R)-8-bromo-12,12-dimethyl-17-(pyridin-2-yl)-2λ^6-thia-3,9,11,18,23-pentaazatetracyclo[17.3.1.111,14.05,10]tetracosa-1(22),5,7,9,19(23),20-hexaene-2,2,4-trione] |
| + (+ is <30%) | < 1 | CC1(C)C[C@@H]2CC[C@@H](c3ccccn3)Nc3cccc(n3)S(=O)(=O)NC(=O)c3ccc(Br)nc3N1C2 [Compound 247, (14S,17S)-8-bromo-12,12-dimethyl-17-(pyridin-2-yl)-2λ^6-thia-3,9,11,18,23-pentaazatetracyclo[17.3.1.111,14.05,10]tetracosa-1(22),5,7,9,19(23),20-hexaene-2,2,4-trione] |
| +++ (+++ is >60%) | < 1 | CN1c2cccc(n2)S(=O)(=O)NC(=O)c2ccc(C(C)(C)C)nc2N2C[C@@H](CC[C@H]1c1ccccc1)CC2(C)C [Compound 262] |
| +++ (+++ is >60%) | < 1 | CC(C)(C)c1ccnc([C@H]2CC[C@@H]3CN(c4nc(-c5cccc(OCCC6CC6)n5)ccc4C(=O)NS(=O)(=O)c4cccc(n4)N2)C(C)(C)C3)c1 [Compound 301, (14S,17R)-17-(4-tert-butylpyridin-2-yl)-8-[6-(2-cyclopropylethoxy)pyridin-2-yl]-12,12-dimethyl-2λ^6-thia-3,9,11,18,23-pentaazatetracyclo[17.3.1.111,14.05,10]tetracosa-1(22),5,7,9,19(23),20-hexaene-2,2,4-trione] |
| +++ (+++ is >60%) | < 1 | CC(C)(C)c1ccnc([C@H]2CC[C@@H]3CN(c4nc(-c5cccc(OCC6CCC6)n5)ccc4C(=O)NS(=O)(=O)c4cccc(n4)N2)C(C)(C)C3)c1 [Compound 302, (14S,17R)-17-(4-tert-butylpyridin-2-yl)-8-[6-(cyclobutylmethoxy)pyridin-2-yl]-12,12-dimethyl-2λ^6-thia-3,9,11,18,23-pentaazatetracyclo[17.3.1.111,14.05,10]tetracosa-1(22),5,7,9,19(23),20-hexaene-2,2,4-trione] |
| +++ (+++ is >60%) | < 1 | CC(C)(C)c1ccnc([C@H]2CC[C@@H]3CN(c4nc(-c5cccc(F)n5)ccc4C(=O)NS(=O)(=O)c4cccc(n4)N2)C(C)(C)C3)c1 [Compound 307, (14S,17R)-17-(4-tert-butylpyridin-2-yl)-8-(6-fluoropyridin-2-yl)-12,12-dimethyl-2λ^6-thia-3,9,11,18,23-pentaazatetracyclo[17.3.1.111,14.05,10]tetracosa-1(22),5,7,9,19(23),20-hexaene-2,2,4-trione] |
| +++ (+++ is >60%) | < 1 | CC1(C)C[C@@H]2CC[C@H](c3ccccn3)Nc3cccc(n3)S(=O)(=O)NC(=O)c3ccc(-c4cccc(OCC5CCC5)n4)nc3N1C2 [Compound 313, (14S,17R)-8-[6-(cyclobutylmethoxy)pyridin-2-yl]-12,12-dimethyl-17-(pyridin-2-yl)-2λ^6-thia-3,9,11,18,23-pentaazatetracyclo[17.3.1.111,14.05,10]tetracosa-1(22),5,7,9,19(23),20-hexaene-2,2,4-trione] |
| +++ (+++ is >60%) | < 1 | CC1(C)C[C@@H]2CC[C@H](c3ccccn3)Nc3cccc(n3)S(=O)(=O)NC(=O)c3ccc(-c4cccc(OCC5CC5)n4)nc3N1C2 [Compound 314] |
| +++ (+++ is >60%) | < 1 | CC(C)COc1cccc(-c2ccc3c(n2)N2C[C@@H](CC[C@H](c4ccccn4)Nc4cccc(n4)S(=O)(=O)NC3=O)CC2(C)C)n1 [Compound 315] |
